From US20260199323A1, “LIGAND COMPOUNDS FOR E3 UBIQUITIN LIGASE, PROTEIN DEGRADERS DEVELOPED ON BASIS OF LIGAND COMPOUNDS, AND USES THEREOF” (GLUETACS THERAPEUTICS (SHANGHAI) CO., LTD., priority 2021, published 2026)
Each block holds one compound with its values, some of them ahead of it.

How the values were obtained:
Daudi = experiment: CCK-8 tumor cell proliferation, Daudi; parameters: species or system Human; conditions: Table 13, designed based on BCR-ABL inhibitors; 96 h
Procedure: (§1) The tumor cells used herein were cultured in a cell culture medium listed in table 4 at 37° C. in an incubator with 5% CO2. Prior to experimentation, all cells used were correctly identified by STR profiling, and tested negative for mycoplasma through routine screenings.
(§2) IC50 values of the compounds of the present disclosure (including the compounds in Tables 1 and 3, and compounds of examples) were measured using the Meilun Cell Counting Kit-8 kit from Dalian Meilun Biotech Co., Ltd. Assay details are as follows: tumor cells were seeded in a 96-well plate at a density listed in Table 5. After 24 h, 100 μL of the inoculated cells were treated with 0.5 μL of the compounds of the present disclosure (including the compounds in Tables 1 and 3, and compounds of examples) at 10 different successively decreasing concentrations (starting at the highest concentration of 10 μM; 5-fold serial dilutions). After the cells were treated with the compounds of the present disclosure for a period of time, the cell viability detection reagent was added to the culture medium for cell viability assessment according to the instructions provided with the CCK-8 kit. […] The growth inhibition of the compounds of the present disclosure on cells was plotted by Prism Graphpad software, and the IC50 values of the compounds of the present disclosure were calculated therefrom.

PC-9 = experiment: CCK-8 tumor cell proliferation, PC-9; type: cell-based, Human; conditions: Table 11, designed based on EGFR inhibitors; 96 h
HCC827 = experiment: CCK-8 tumor cell proliferation, HCC827; type: cell-based, Human; conditions: Table 11, designed based on EGFR inhibitors; 96 h
NCI-H358 = experiment: CCK-8 tumor cell proliferation, NCI-H358; parameters: species or system Human; conditions: Table 11, designed based on EGFR inhibitors; 96 h
Procedure: The tumor cells used herein were cultured in a cell culture medium listed in table 4 at 37° C. in an incubator with 5% CO2.
as §2, with “After” for “IC50 values of the compounds of the present disclosure (including the compounds in Tables 1 and 3, and compounds of examples) were measured using the Meilun Cell Counting Kit-8 kit from Dalian Meilun Biotech Co., Ltd. Assay details are as follows: tumor cells were seeded in a 96-well plate at a density listed in Table 5. After”

Mino = experiment: CCK-8 tumor cell proliferation, Mino; type: cell-based, Human; conditions: 72 h
In short: (§3)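 Using the CCK-8 kit, viability of plated cells is assessed after exposure to compound across ten concentrations (5-fold serial dilution, top 10 μM) added at 24 h. IC50 is obtained by curve fitting of growth inhibition.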

CCRF-CEM = experiment: CCK-8 tumor cell proliferation, CCRF-CEM; type: cell-based, Human; parameters: IC50 for inhibiting the proliferation of tumor cells, CCRF-CEM: scale not given here; conditions: 96 h
In short: as §3

Kasumi-1 = experiment: CCK-8 tumor cell proliferation, Kasumi-1; type: cell-based, Human; conditions: 72 h
In short: as §3

PC-3 = experiment: CCK-8 tumor cell proliferation, PC-3; type: cell-based, Human; conditions: Table 16, designed based on BET inhibitors; 96 h
Procedure: as §1, §2

Ramos = experiment: CCK-8 tumor cell proliferation, Ramos; conditions: Homo sapiens, Table 9, designed based on SHP2 inhibitors, 72 h, read-out: IC50 for inhibiting the proliferation of tumor cells, Ramos
Procedure: as §1, §2

SU-DHL-6 = experiment: CCK-8 tumor cell proliferation, SU-DHL-6; type: cell-based, Human; conditions: Table 14, designed based on CDK4/6 inhibitors; 72 h
Procedure: as §1, §2

HGC-27 = experiment: CCK-8 tumor cell proliferation, HGC-27; type: cell-based, Human; conditions: Table 14, designed based on CDK4/6 inhibitors; 96 h
Procedure: as §1, §2

SR = experiment: CCK-8 tumor cell proliferation, SR; type: cell-based, Human; conditions: Table 14, designed based on CDK4/6 inhibitors; 72 h
In short: as §3

SK-OV-3 = experiment: CCK-8 tumor cell proliferation, SK-OV-3; conditions: Table 14, designed based on CDK4/6 inhibitors
Procedure: as §2

[1] = Table 16, designed based on BET inhibitors
[2] = Table 13, designed based on BCR-ABL inhibitors

SMILES: Cc1ccc(NC(=O)c2ccc(CN3CCN(Cc4ccc5c(c4)CN(C4CCC(=O)NC4=O)C5=O)CC3)cc2)cc1Nc1nccc(-c2cccnc2)n1 (stereo not shown) [GT-02969, 4-((4-((2-(2,6-dioxopiperidin-3-yl)-1-oxoisoindolin-5-yl)methyl)piperazin-1-yl)methyl)-N-(4-methyl-3-((4-(pyridin-3-yl)pyrimidin-2-yl)amino)phenyl)benzamide]
IC50 for inhibiting the proliferation of tumor cells, Daudi (Daudi): A+

SMILES: Cc1sc2c(c1C)C(c1ccc(Cl)cc1)=N[C@@H](CC(=O)NCCN1CCN(Cc3ccc4c(c3)CN(C3CCC(=O)NC3=O)C4=O)CC1)c1nnc(C)n1-2 (stereo partly drawn) [GT-03296, 2-((S)-4-(4-chlorophenyl)-2,3,9-trimethyl-6H-thieno[3,2-f][1,2,4]triazolo[4,3-a][1,4]diazepin-6-yl)-N-(2-(4-((2-(2,6-dioxopiperidin-3-yl)-1-oxoisoindolin-5-yl)methyl)piperazin-1-yl)ethyl)acetamide]
IC50 for inhibiting the proliferation of tumor cells, Mino (Mino; [1]): A+ | IC50 for inhibiting the proliferation of tumor cells, CCRF-CEM (CCRF-CEM; [1]): A+ | IC50 for inhibiting the proliferation of tumor cells, Kasumi-1 (Kasumi-1; [1]): A+ | IC50 for inhibiting the proliferation of tumor cells, PC-3 (PC-3): A+

SMILES: CC1(N)CCN(c2cnc(-c3cccc(Cl)c3Cl)c(N)n2)CC1 [GT-03334]
IC50 (Ramos): > 10 µM

SMILES: C[C@@H]1OCC2(CCN(c3cnc(Sc4ccnc(N)c4Cl)c(N)n3)CC2)[C@@H]1N [GT-03335]
IC50 (Ramos): > 10 µM

SMILES: COc1cc2ncnc(Nc3ccc(Cl)c(Cl)c3F)c2cc1OCc1ccc2c(c1)CN(C1CCC(=O)NC1=O)C2=O (stereo not shown) [GT-03354, 3-(5-(((4-((3,4-dichloro-2-fluorophenyl)amino)-7-methoxyquinazolin-6-yl)oxy)methyl)-1-oxoisoindolin-2-yl)piperidine-2,6-dione]
IC50 for inhibiting the proliferation of tumor cells, NCI-H358 (NCI-H358): A+

SMILES: Cc1ccc(NC(=O)c2ccc(CNCc3ccc4c(c3)CN(C3CCC(=O)NC3=O)C4=O)cc2)cc1Nc1nccc(-c2cccnc2)n1 (stereo not shown) [GT-03377, 4-((((2-(2,6-dioxopiperidin-3-yl)-1-oxoisoindolin-5-yl)methyl)amino)methyl)-N-(4-methyl-3-((4-(pyridin-3-yl)pyrimidin-2-yl)amino)phenyl)benzamide]
IC50 for inhibiting the proliferation of tumor cells, Daudi (Daudi): A+ | IC50 for inhibiting the proliferation of tumor cells, Mino (Mino; [2]): A+ | IC50 for inhibiting the proliferation of tumor cells, Kasumi-1 (Kasumi-1; [2]): A+

SMILES: COc1cc2ncnc(Nc3ccc(Cl)c(Cl)c3F)c2cc1OC1CCN(Cc2ccc3c(c2)CN(C2CCC(=O)NC2=O)C3=O)CC1 (stereo not shown) [GT-03412, 3-(5-((4-((4-((3,4-dichloro-2-fluorophenyl)amino)-7-methoxyquinazolin-6-yl)oxy)piperidin-1-yl)methyl)-1-oxoisoindolin-2-yl)piperidine-2,6-dione]
IC50 for inhibiting the proliferation of tumor cells, PC-9 (PC-9): A+ | IC50 for inhibiting the proliferation of tumor cells, NCI-H358 (NCI-H358): A+

The next lines start with the values.

IC50 for inhibiting the proliferation of tumor cells, PC-9 (PC-9): A+ | IC50 for inhibiting the proliferation of tumor cells, HCC827 (HCC827): A+ | IC50 for inhibiting the proliferation of tumor cells, NCI-H358 (NCI-H358): A+
SMILES: COc1cc2ncnc(Nc3ccc(F)c(Cl)c3)c2cc1NC(=O)/C=C/CN1CCN(Cc2ccc3c(c2)CN(C2CCC(=O)NC2=O)C3=O)CC1 (stereo not shown) [GT-03265, (E)-N-(4-((3-chloro-4-fluorophenyl)amino)-7-methoxyquinazolin-6-yl)-4-(4-((2-(2,6-dioxopiperidin-3-yl)-1-oxoisoindolin-5-yl)methyl)piperazin-1-yl)but-2-enamide]

IC50 for inhibiting the proliferation of tumor cells, PC-9 (PC-9): A+ | IC50 for inhibiting the proliferation of tumor cells, NCI-H358 (NCI-H358): A+
SMILES: C=CC(=O)Nc1cc2c(Nc3ccc(F)c(Cl)c3)ncnc2cc1OCCCN1CCN(Cc2ccc3c(c2)CN(C2CCC(=O)NC2=O)C3=O)CC1 (stereo not shown) [GT-03411, N-(4-((3-chloro-4-fluorophenyl)amino)-7-(3-(4-((2-(2,6-dioxopiperidin-3-yl)-1-oxoisoindolin-5-yl)methyl)piperazin-1-yl)propoxy)quinazolin-6-yl)acrylamide]

IC50 for inhibiting the proliferation of tumor cells, Daudi (Daudi): A+ | IC50 for inhibiting the proliferation of tumor cells, Mino (Mino; [2]): A+
SMILES: Cc1nc(Nc2ncc(C(=O)Nc3c(C)cccc3Cl)s2)cc(N2CCC(N(C)Cc3ccc4c(c3)CN(C3CCC(=O)NC3=O)C4=O)CC2)n1 (stereo not shown) [GT-03545, N-(2-chloro-6-methylphenyl)-2-((6-(4-(((2-(2,6-dioxopiperidin-3-yl)-1-oxoisoindolin-5-yl)methyl)(methyl)amino)piperidin-1-yl)-2-methylpyrimidin-4-yl)amino)thiazole-5-carboxamide]

IC50 for inhibiting the proliferation of tumor cells, Mino (Mino; [1]): A+ | IC50 for inhibiting the proliferation of tumor cells, CCRF-CEM (CCRF-CEM; [1]): A+ | IC50 for inhibiting the proliferation of tumor cells, PC-3 (PC-3): A+
SMILES: COc1cc(OC)c2c(=O)[nH]c(-c3ccc(N4CCC(N5CCN(Cc6ccc7c(c6)CN(C6CCC(=O)NC6=O)C7=O)CC5)CC4)cc3)nc2c1 (stereo not shown) [GT-03708, 3-(5-((4-(1-(4-(5,7-dimethoxy-4-oxo-3,4-dihydroquinazolin-2-yl)phenyl)piperidin-4-yl)piperazin-1-yl)methyl)-1-oxoisoindolin-2-yl)piperidine-2,6-dione]

IC50 for inhibiting the proliferation of tumor cells, SU-DHL-6 (SU-DHL-6): A+ | IC50 for inhibiting the proliferation of tumor cells, HGC-27 (HGC-27): A+ | IC50 for inhibiting the proliferation of tumor cells, SR (SR): A+ | IC50 for inhibiting the proliferation of tumor cells, SK-OV-3 (SK-OV-3): A+
SMILES: Cc1nc2c(F)cc(-c3nc(Nc4ccc(N5CCC(N6CCN(Cc7ccc8c(c7F)CN(C7CCC(=O)NC7=O)C8=O)CC6)CC5)cn4)ncc3F)cc2n1C(C)C (stereo not shown) [GT-03900, 3-(4-fluoro-5-((4-(1-(6-((5-fluoro-4-(4-fluoro-1-isopropyl-2-methyl-1H-benzo[d]imidazol-6-yl)pyrimidin-2-yl)amino)pyridin-3-yl)piperidin-4-yl)piperazin-1-yl)methyl)-1-oxoisoindolin-2-yl)piperidine-2,6-dione]

IC50 for inhibiting the proliferation of tumor cells, SU-DHL-6 (SU-DHL-6): A+ | IC50 for inhibiting the proliferation of tumor cells, HGC-27 (HGC-27): A+ | IC50 for inhibiting the proliferation of tumor cells, SR (SR): A+ | IC50 for inhibiting the proliferation of tumor cells, SK-OV-3 (SK-OV-3): A+
SMILES: Cc1nc2c(F)cc(-c3nc(Nc4ccc(N5CCC(N6CCN(Cc7cc8c(cc7F)C(=O)N(C7CCC(=O)NC7=O)C8)CC6)CC5)cn4)ncc3F)cc2n1C(C)C (stereo not shown) [GT-03901, 3-(6-fluoro-5-((4-(1-(6-((5-fluoro-4-(4-fluoro-1-isopropyl-2-methyl-1H-benzo[d]imidazol-6-yl)pyrimidin-2-yl)amino)pyridin-3-yl)piperidin-4-yl)piperazin-1-yl)methyl)-1-oxoisoindolin-2-yl)piperidine-2,6-dione]

IC50 for inhibiting the proliferation of tumor cells, SU-DHL-6 (SU-DHL-6): A+ | IC50 for inhibiting the proliferation of tumor cells, HGC-27 (HGC-27): A+ | IC50 for inhibiting the proliferation of tumor cells, SR (SR): A+ | IC50 for inhibiting the proliferation of tumor cells, SK-OV-3 (SK-OV-3): A+
SMILES: Cc1nc2c(F)cc(-c3nc(Nc4ccc(N5CCC(N6CCN(Cc7cc(F)c8c(c7)CN(C7CCC(=O)NC7=O)C8=O)CC6)CC5)cn4)ncc3F)cc2n1C(C)C (stereo not shown) [GT-03902, 3-(7-fluoro-5-((4-(1-(6-((5-fluoro-4-(4-fluoro-1-isopropyl-2-methyl-1H-benzo[d]imidazol-6-yl)pyrimidin-2-yl)amino)pyridin-3-yl)piperidin-4-yl)piperazin-1-yl)methyl)-1-oxoisoindolin-2-yl)piperidine-2,6-dione]

IC50 for inhibiting the proliferation of tumor cells, SU-DHL-6 (SU-DHL-6): A+ | IC50 for inhibiting the proliferation of tumor cells, CCRF-CEM (CCRF-CEM; Table 14, designed based on CDK4/6 inhibitors): A+ | IC50 for inhibiting the proliferation of tumor cells, HGC-27 (HGC-27): A+ | IC50 for inhibiting the proliferation of tumor cells, SR (SR): A+ | IC50 for inhibiting the proliferation of tumor cells, SK-OV-3 (SK-OV-3): A+
SMILES: Cc1nc2c(F)cc(-c3nc(Nc4ccc(N5CCC(N6CCN(Cc7cccc8c7CN(C7CCC(=O)NC7=O)C8=O)CC6)CC5)cn4)ncc3F)cc2n1C(C)C (stereo not shown) [GT-03903, 3-(4-((4-(1-(6-((5-fluoro-4-(4-fluoro-1-isopropyl-2-methyl-1H-benzo[d]imidazol-6-yl)pyrimidin-2-yl)amino)pyridin-3-yl)piperidin-4-yl)piperazin-1-yl)methyl)-1-oxoisoindolin-2-yl)piperidine-2,6-dione]
